Test system: aconitine-induced ventricular arrhythmias
Experiment: aconitine test in rats (antiarrhythmic activity)
Format: in vivo, male rats
Protocol: The principle of the technique rests on the time required for inducing ventricular arrhythmias with aconitine slowly perfused in rats. An antiarrhythmic substance delays the appearance of the arrhythmia, and this delay is proportional to the activity of the substance.
Groups of 5 male rats are used. Individual anaesthetisation is carried out (10% urethane: 1 g/kg/ip) to permit catheterisation of the vein of the penis. The electrocardiogram is recorded. At time T=O, the substance studied is injected as an aqueous solution, in the proportion of 2.5 ml of solution per kg, in the course of 30 seconds. At time T=60 seconds, or 30 seconds after completing the injection, aconitine is perfused at the rate of 20 μg per minute until […] extrasystoles appear. The perfusion time of the aconitine is noted. The results are expressed as an ED50, i.e. the dose of the product under test in mg/kg which increases by 50% the perfusion time of aconitine relative to control animals.

SMILES | ED50 (dose which increases by 50% the perfusion time of aconitine relative to control animals) [mg/kg i.v.] | ED50 (Rattus norvegicus, iv, read-out: ED50 (dose which increases by 50% the perfusion time of aconitine relative to control animals)) [mg/kg]
COc1cc2ccnc(C(=O)CCC3CCNCC3)c2cc1OC [Example 3, 1-(6,7-Dimethoxy-1-isoquinolyl)-3-(4-piperidyl)-1-propanone] | 2.1 | –
OC(CCC1CCNCC1)c1cccc2ccccc12 (stereo not drawn) [Example 5, 1-(1-Naphthyl)-3-(4-piperidyl)-1-propanol] | 1.42 | –
CC(C)(C)c1nc(C(O)CCC2CCNCC2)c2ccccc2n1 (stereo not drawn) [Example 8, 1[2-(1,1-Dimethylethyl)-4-quinazolinyl]-3-(4-piperidyl)-1-propanol] | 1 | –
O=C(CCC1CCNCC1)c1cccc2ccccc12 [Example 2, 1-(1-Naphthyl)-3-(4-piperidyl)-1-propanone] | 3.8 | –
C=C[C@H]1C[N@@]2CC[C@H]1C[C@@H]2[C@@H](O)c1ccnc2ccc(OC)cc12 [Quinidine, reference compound] | 7.5 | –
NC(CCC1CCNCC1)c1ccc2ccccc2c1 (stereo not drawn) [Example 9, 1-(2-Naphthyl)-3-(4-piperidyl)-1-propanamine] | – | < 0.3
COc1cc2ccnc(C(O)CCC3CCNCC3)c2cc1OC (stereo not drawn) [Example 7, 1-(6,7-Dimethoxy-1-isoquinolyl)-3-(4-piperidyl)-1-propanol] | 2.5 | –
O=C(CCC1CCNCC1)c1ccc2ccccc2c1 [Example 1, 1-(2-Naphthyl)-3-(4-piperidyl)-1-propanone] | 4 | –
OC(CCC1CCNCC1)c1nccc2ccccc12 (stereo not drawn) [Example 6, 1-(1-Isoquinolyl)-3-(4-piperidyl)-1-propanol] | 2.7 | –
